Results reported in US7105725B2, “Pathogen resistant transgenic plants expressing CEMA or CEMA-related peptides” (University of Victoria Innovation and Development …, priority 1999, dated 2006).

Legend:
E. coli = assay: anti-bacterial assay (colony count after 4 h with serially diluted peptide); format: cell-based, Escherichia coli DH5α
Procedure: The antibacterial activity of a given CEMA and/or CEMA-related peptide can be assessed conveniently by determining the ability of the peptide to inhibit the growth of a pectinolytic bacterial strain such as Erwinia carotovora or even Escherichia coli DH5α. The activity of a given peptide is determined by serially diluting the peptide in Luria-Bertaini (LB) medium and 100-μL aliquots of the resulting titers into wells of a 96-well microtiter plate. A fresh bacterial culture (˜0.3 A550) is then grown on LB medium (1% w/v tryptone and 0.5% w/v yeast extract) and diluted to 10^−2 in LB to represent approximately 10^4–10^5 colony forming units (CFU)mL^−1. 10 μL of the bacterial culture are then inoculated into each well containing the peptide and the samples are incubated at 37° C. for 4 hours. The well contents are then diluted in LB, plated on LB agar, and incubated overnight at an appropriate temperature. […] The colonies are counted, and the antibacterial activity of the peptide under test is determined by comparison to the control plate.
The CEMA or CEMA-related peptide is determined to have biological activity if, under the conditions of this assay, the peptide is capable of inhibiting bacterial growth by at least 10% (compared to the control) at a concentration of 7 μg per mL (i.e., at this concentration, the number of bacterial colonies is no more than 90% that of the control plate).

[1] = system: susceptible microorganisms; conditions: cited from earlier work

| Substance | concentration that kills 50% of bacterial cells (E. coli) [µg/mL] | antimicrobial activity [1] |
| --- | --- | --- |
| KWKLFKKIGIGAVLKVLTTGLPALKLTK [CEMA] | 4.5 |  |
| mellitin |  | potent antimicrobial activity |
